# Structures can show the parent of a compound that is named as a salt.
# What was measured:
# Assay type in all cases: in vivo, rabbit
# [1] = test system: REC1_1 (MspI AAGC 288) mRNA, TYRO protein tyrosine kinase binding p; test: TOGA analysis, REC1_1
# Method: (§1) To perform the studies, New Zealand male rabbits weighing 2.0-2.5 kg (Charles River, Calco, Italy) were used. The rabbits were divided into three groups and maintained in identical experimental conditions: (1) control group (n=15); rabbits fed a cholesterol-rich diet; (2) lercanidipine-treated group (n=15); rabbits fed a cholesterol-rich diet and also treated with lercanidipine (3 mg/kg/week); and (3) (R)-lercanidipine-treated group (n=5); rabbits fed a cholesterol-rich diet and also treated with the (R)-enantiomer of lercanidipine (3 mg/kg/week). After a 2 week period of subcutaneous, once a week, pretreatment with 3 mg/kg/week of lercanidipine or (R)-lercanidipine, the rabbits received a daily cholesterol supplement for up to 8 weeks or 2 weeks, respectively. In the following examples, use of the term “lercanidipine” refers to the racemic mixture of lercanidipine hydrochloride, whereas “(R)-lercanidipine” refers to the (R)-enantiomer of lercanidipine hydrochloride.
# (§2) The mRNA from the above-described groups was isolated from aorta at different time points, resulting in the following mRNA samples: (1) Day 0 Control=no administered cholesterol, no lercanidipine; (2) Day 0+lercanidipine=no administered cholesterol, treatment with lercanipidine (2 weeks; 3 mg/kg/week); (3) Day 14 Control=cholesterol diet for two weeks, no lercanidipine; (4) Day 14+lercanidipine=cholesterol diet for two weeks, treatment with lercanidipine (four weeks; 3 mg/kg/week); (5) Week 8 Control=cholesterol diet for 8 weeks, no lercanidipine; and (6) Week 8+lercanidipine=cholesterol diet for 8 weeks, treatment with lercanidipine (10 weeks; 3 mg/kg/week). In addition, Day 14+(R)-lercanidipine mRNA samples were prepared from rabbits given a cholesterol diet for two weeks and treated with 3 mg/kg/week (R)-lercanidipine for four weeks.
# (§3) Aorta mRNAs were prepared in the following manner. First, the aortas from each experimental group were retrieved and shredded using a polytron homogenizer. The samples were further homogenized using a teflon pestle, after which the cellular debris, nuclei, and blood cells were pelleted by centrifugation. The supernatants were extracted twice with phenol-chloroform-isoamyl alcohol and once with chloroform-isoamyl alcohol. RNA was then precipitated from the aqueous phase with ethanol. The poly A+ mRNA was prepared using standard methods of polyA selection known in the art (Schriber et al., J. Mol. Biol., 142:93-116 (1980)).
# (§4) The isolated mRNA was analyzed using a method of simultaneous sequence-specific identification of mRNAs known as TOGA, described in U.S. Pat. No. 5,459,037 and U.S. Pat. No. 5,807,680, hereby incorporated herein by reference. In a preferred embodiment, the TOGA method further comprised an additional PCR step performed using a mixture of four 5′ PCR primers and cDNA templates prepared from a population of antisense cRNAs. A final PCR step that used a mixture of 256 5′ PCR primers produced PCR products that were cDNA fragments that corresponded to the 3′-region of the starting mRNA population. The produced PCR products were then identified by: (a) the initial 5′ sequence comprising the sequence remainder of the recognition site of the restriction endonuclease used to cut and isolate the 3′ region plus the sequence of the preferably four parsing bases immediately 3′ to the remainder of the recognition site, preferably the sequence of the entire fragment; and (b) the length of the fragment. These two parameters, sequence and fragment length, were used to compare the obtained PCR products to a database of known polynucleotide sequences. Since the length of the obtained PCR products includes known vector sequences at the 5′ and 3′ ends of the insert, the sequence of the insert provided in the sequence listing is shorter than the fragment length that forms part of the digital address.
# (§5) The method yields Digital Sequence Tags (DSTs), that is, polynucleotides that are expressed sequence tags of the 3′ end of mRNAs. […]
# [2] = test system: REC1_3 (MspI ACGG 162) mRNA; test: TOGA analysis, REC1_3
# Method: as §1, §2, §3
# as §4, with “These two parameters, sequence and fragment length, were used to compare the obtained PCR products to a database of known polynucleotide sequences. Since the length of the obtained PCR products includes known vector sequences at the 5′ and 3′ ends of the insert, the sequence of the insert provided in the sequence listing is shorter than the fragment length that forms part of the digital address.” left out
# [3] = test system: REC1_8 (MspI CCCG 243) mRNA; test: TOGA analysis, REC1_8
# Method: as §1, §2, §3
# as §4, with “These two parameters, sequence and fragment length, were used to compare the obtained PCR products to a database of known polynucleotide sequences. Since the length of the obtained PCR products includes known vector sequences at the 5′ and 3′ ends of the insert, the sequence of the insert provided in the sequence listing is shorter than the fragment length that forms part of the digital address.” left out
# [4] = test system: REC1_7 (MspI CACA 282) mRNA; test: TOGA analysis, REC1_7
# Method: as §1, §2, §3, §4, §5
# REC1_19 (TGTT 393) mRNA = test: TOGA analysis, REC1_19
# Method: as §1, §2, §3
# as §4, with “These two parameters, sequence and fragment length, were used to compare the obtained PCR products to a database of known polynucleotide sequences. Since the length of the obtained PCR products includes known vector sequences at the 5′ and 3′ ends of the insert, the sequence of the insert provided in the sequence listing is shorter than the fragment length that forms part of the digital address.” left out
# [5] = test system: REC1_22 (digital address TGGG 164) mRNA; test: TOGA analysis, REC1_22
# Method: as §1, §2, §3, §4, §5
# [6] = test system: REC1_24 (digital address CCGG 232) mRNA; test: TOGA analysis, REC1_24
# Method: as §1, §2, §3, §4, §5
# [7] = test system: REC1_28 (digital address CGGT 101) mRNA, calgizzarin; test: TOGA analysis, REC1_28
# Method: as §1, §2, §3, §4, §5
# [8] = test system: REC1_31 (digital address TGCA 210) mRNA, mitochondrial genome; test: TOGA analysis, REC1_31
# Method: as §1, §2, §3, §4, §5
# [9] = test system: REC1_33 (digital address CCGA 96) mRNA, as1_casein gene; test: TOGA analysis, REC1_33
# Method: as §1, §2, §3, §4, §5
# [10] = test system: REC1_34 (digital address CGGT 209) mRNA; test: TOGA analysis, REC1_34
# Method: as §1, §2, §3, §4, §5
# [11] = test system: REC1_37 (digital address TTCA 264) mRNA, ribosomal protein L15; test: TOGA analysis, REC1_37
# Method: as §1, §2, §3, §4, §5
# [12] = TOGA, hypercholesterolemic plus lercanidipine racemate, eight weeks, H2 (normocholesterolemic)=1.0
# [13] = aorta at day 0: no cholesterol, 3 mg/kg/week for 2 weeks
# [14] = aorta at day 14 of cholesterol administration, 3 mg/kg/week for 4 weeks
# [15] = aorta at day 14 of cholesterol diet, 3 mg/kg/week for 4 weeks
# [16] = aorta at day 14 of cholesterol, 3 mg/kg/week for 4 weeks
smiles,measurement,setting,value
"COC(=O)C1=C(C)NC(C)=C(C(=O)OC(C)(C)CN(C)CCC(c2ccccc2)c2ccccc2)C1c1cccc([N+](=O)[O-])c1 (racemic) [lercanidipine, lercanidipine hydrochloride]","level of gene expression (TOGA), 8 Week hypercholesterol + Lercanidipine","[1]; REC1_1, AAGC 288, rabbit aorta, 8 weeks cholesterol + lercanidipine",1733
same,"level of gene expression (TOGA), 14 Day hypercholesterol + Lercanidipine","[1]; REC1_1, AAGC 288, rabbit aorta, 14 days cholesterol + lercanidipine",753
same,"level of gene expression (TOGA), Normal + Lercanidipine","[1]; REC1_1, AAGC 288, rabbit aorta, no cholesterol, lercanidipine",215
same,"Relative Abundance Rec1_1, TOGA, F",[1]; [12],6.9
same,level of gene expression of REC1_1 (TOGA),"[1]; aorta at 8 weeks of cholesterol administration, 3 mg/kg/week for 10 weeks",1733
same,level of gene expression of REC1_1 (TOGA),[1]; [13],215
same,level of gene expression of REC1_1 (TOGA),"[1]; aorta at day 14 of cholesterol treatment, 3 mg/kg/week for 4 weeks",753
same,"level of gene expression (TOGA), 8 Week hypercholesterol + Lercanidipine","[2]; REC1_3, ACGG 162, rabbit aorta, 8 weeks cholesterol + lercanidipine",65
same,"level of gene expression (TOGA), 14 Day hypercholesterol + Lercanidipine","[2]; REC1_3, ACGG 162, rabbit aorta, 14 days cholesterol + lercanidipine",68
same,"level of gene expression (TOGA), Normal + Lercanidipine","[2]; REC1_3, ACGG 162, rabbit aorta, no cholesterol, lercanidipine",54
same,"Relative Abundance Rec1_3, TOGA, F",[2]; [12],0.8
same,"level of gene expression, 8 Week hypercholesterol + Lercanidipine","[3]; REC1_8 CCCG 243, rabbit aorta, 8 weeks cholesterol",1136
same,"level of gene expression, 14 Day hypercholesterol + Lercanidipine","[3]; REC1_8 CCCG 243, rabbit aorta, 14 days cholesterol",373
same,"level of gene expression, Normal + Lercanidipine","[3]; REC1_8 CCCG 243, rabbit aorta, no cholesterol",163
same,"Relative Abundance Rec1_8, TOGA, F",[3]; [12],13.1
same,"level of gene expression (TOGA), 8 Week hypercholesterol + Lercanidipine","[4]; REC1_7, CACA 282, rabbit aorta, 8 weeks cholesterol + lercanidipine",159
same,"level of gene expression (TOGA), 14 Day hypercholesterol + Lercanidipine","[4]; REC1_7, CACA 282, rabbit aorta, 14 days cholesterol + lercanidipine",417
same,"level of gene expression (TOGA), Normal + Lercanidipine","[4]; REC1_7, CACA 282, rabbit aorta, no cholesterol, lercanidipine",863
same,"Relative Abundance Rec1_7, TOGA, F",[4]; [12],0.2
same,level of gene expression of REC1_7 (TOGA),[4]; [13],863
same,level of gene expression of REC1_7 (TOGA),[4]; [14],417
same,level of gene expression of REC1_7 (TOGA),"[4]; aorta at week 8 of cholesterol administration, 3 mg/kg/week for 10 weeks",159
same,"level of gene expression, 8 Week hypercholesterol + Lercanidipine","REC1_19 (TGTT 393) mRNA; REC1_19 TGTT 393, rabbit aorta, cholesterol 8 weeks",130
same,"level of gene expression, 14 Day hypercholesterol + Lercanidipine","REC1_19 (TGTT 393) mRNA; REC1_19 TGTT 393, rabbit aorta, cholesterol 14 days",373
same,"level of gene expression, Normal + Lercanidipine","REC1_19 (TGTT 393) mRNA; REC1_19 TGTT 393, rabbit aorta, no cholesterol",569
same,"Relative Abundance Rec1_19, TOGA, F",REC1_19 (TGTT 393) mRNA; [12],0.2
same,"level of gene expression, 8 Week hypercholesterol + Lercanidipine","[5]; REC1_22 TGGG 164, rabbit aorta, cholesterol 8 weeks",122
same,"level of gene expression, 14 Day hypercholesterol + Lercanidipine","[5]; REC1_22 TGGG 164, rabbit aorta, cholesterol 14 days",194
same,"level of gene expression, Normal + Lercanidipine","[5]; REC1_22 TGGG 164, rabbit aorta, no cholesterol",87
same,level of gene expression of REC1_22 (TOGA),[5]; [13],87
same,level of gene expression of REC1_22 (TOGA),[5]; [14],194
same,"level of gene expression, 8 Week hypercholesterol + Lercanidipine","[6]; REC1_24 CCGG 232, rabbit aorta, 8 weeks cholesterol",117
same,"level of gene expression, 14 Day hypercholesterol + Lercanidipine","[6]; REC1_24 CCGG 232, rabbit aorta, 14 days cholesterol",104
same,"level of gene expression, Normal + Lercanidipine","[6]; REC1_24 CCGG 232, rabbit aorta, no cholesterol",122
same,level of gene expression of REC1_24 (TOGA),[6]; [13],122
same,level of gene expression of REC1_24 (TOGA),[6]; [15],104
same,"level of gene expression, 8 Week hypercholesterol + Lercanidipine","[7]; REC1_28 CGGT 101, rabbit aorta, 8 weeks cholesterol",176
same,"level of gene expression, 14 Day hypercholesterol + Lercanidipine","[7]; REC1_28 CGGT 101, rabbit aorta, 14 days cholesterol",189
same,"level of gene expression, Normal + Lercanidipine","[7]; REC1_28 CGGT 101, rabbit aorta, no cholesterol",229
same,level of gene expression of REC1_28 (TOGA),[7]; [13],229
same,level of gene expression of REC1_28 (TOGA),[7]; [15],189
same,"level of gene expression, 8 Week hypercholesterol + Lercanidipine","[8]; REC1_31 TGCA 210, rabbit aorta, cholesterol 8 weeks",245
same,"level of gene expression, 14 Day hypercholesterol + Lercanidipine","[8]; REC1_31 TGCA 210, rabbit aorta, cholesterol 14 days",619
same,"level of gene expression, Normal + Lercanidipine","[8]; REC1_31 TGCA 210, rabbit aorta, no cholesterol",464
same,level of gene expression of REC1_31 (TOGA),[8]; [13],464
same,level of gene expression of REC1_31 (TOGA),[8]; [14],619
same,"level of gene expression, 8 Week hypercholesterol + Lercanidipine","[9]; REC1_33 CCGA 96, rabbit aorta, 8 weeks cholesterol",156
same,"level of gene expression, 14 Day hypercholesterol + Lercanidipine","[9]; REC1_33 CCGA 96, rabbit aorta, 14 days cholesterol",842
same,"level of gene expression, Normal + Lercanidipine","[9]; REC1_33 CCGA 96, rabbit aorta, no cholesterol",1094
same,level of gene expression of REC1_33 (TOGA),[9]; [13],1094
same,level of gene expression of REC1_33 (TOGA),[9]; [14],842
same,"level of gene expression, 8 Week hypercholesterol + Lercanidipine","[10]; REC1_34 CGGT 209, rabbit aorta, 8 weeks cholesterol",203
same,"level of gene expression, 14 Day hypercholesterol + Lercanidipine","[10]; REC1_34 CGGT 209, rabbit aorta, 14 days cholesterol",331
same,"level of gene expression, Normal + Lercanidipine","[10]; REC1_34 CGGT 209, rabbit aorta, no cholesterol",100
same,level of gene expression of REC1_34 (TOGA),[10]; [13],100
same,level of gene expression of REC1_34 (TOGA),[10]; [16],331
same,"level of gene expression, 8 Week hypercholesterol + Lercanidipine","[11]; REC1_37 TTCA 264, rabbit aorta, cholesterol 8 weeks",136
same,"level of gene expression, 14 Day hypercholesterol + Lercanidipine","[11]; REC1_37 TTCA 264, rabbit aorta, cholesterol 14 days",915
same,"level of gene expression, Normal + Lercanidipine","[11]; REC1_37 TTCA 264, rabbit aorta, no cholesterol",605
same,level of gene expression of REC1_37 (TOGA),[11]; [16],915
same,level of gene expression of REC1_37 (TOGA),"[11]; aorta at week 8 of cholesterol, 3 mg/kg/week for 10 weeks",136

# From US20030215817A1, “Modulation of gene expression in formation of fatty atherosclerotic lesions” (priority 2003, published 2003)
